System: Rattus norvegicus
Experiment: Retention time in albino Wistar Hannover rat treated with 5 mg/kg, iv of [14C]figopitant
Assay type: ADME, organism-based
Parameters: dose 5 mg/kg, route intravenous
Details: in vivo

| Retention_time | SMILES |
| --- | --- |
| 11.9 min | CN(CCc1cc(C(F)(F)F)cc(C(F)(F)F)c1)C(=O)[C@@H](NCCN)c1ccccc1 |
| 14.5 min | CN(CCc1cc(C(F)(F)F)cc(C(F)(F)F)c1)C(=O)[C@H](c1ccccc1)N1CCNCC1 |
| 24.2 min | CN(CC(O)c1cc(C(F)(F)F)cc(C(F)(F)F)c1)C(=O)[C@H](c1ccccc1)N1CCN(CC2CC2)CC1 (stereo partly drawn) |
